The source of these data is ChEMBL document CHEMBL1255321, “Prevalence of the erm(T) gene in clinical isolates of erythromycin-resistant group D Streptococcus and Enterococcus” (2008).

Usually MIC stands for the lowest concentration that inhibits growth of the organism. Read a high MIC as a need for much substance.

In assay [1] the test system is Streptococcus sp. The experiment in a line: Antimicrobial activity against Group D Streptococcus sp. clinical isolates assessed as resistant isolates. Type of assay: functional.
Assay [2] has as its system Streptococcus sp. The experiment in a line: Antimicrobial activity against Group D Streptococcus sp. clinical isolates expressing erm(T) gene by Etest. In kind it is functional.
For assay [3], the system named is Streptococcus sp. As to the kind of experiment: Antimicrobial activity against erythromycin-resistant Group D Streptococcus sp. clinical isolates expressing erm(T) gene by Etest. Type of assay: functional.
Assay [4] deals with Enterococcus faecalis. As to the kind of experiment: Antimicrobial activity against Group D Enterococcus faecalis clinical isolate expressing erm(B) gene by disk diffusion method. In kind it is functional, organism-based.
Assay [5] relates to Enterococcus faecium. The experiment in a line: Antimicrobial activity against Group D Enterococcus faecium clinical isolate expressing erm(B) gene by disk diffusion method. In kind it is functional, organism-based. (Agar diffusion results depend on both activity and mobility in agar.)
Assay [6] relates to Enterococcus faecium. The experiment in a line: Antimicrobial activity against Group D Enterococcus faecium clinical isolate expressing erm(B) and erm(T) genes by disk diffusion method. In kind it is functional, organism-based.

In brackets after ≈: the same amount, converted by molar mass. Activity calls are given as the source filed them. The rule behind the calls is not given here. Where only a bound is given, the exact number is not on record here.

In the case of `CCC[C@@H]1C[C@@H](C(=O)N[C@@H]([C@H]2O[C@H](SC)[C@H](O)[C@@H](O)[C@H]2O)[C@H](C)Cl)N(C)C1` [CLINDAMYCIN], the Activity in assay [1] is 33%. In assay [2], this compound yielded an MIC of 0.125 µg/mL (≈ 0.294 µM).
In the case of `CC[C@H]1OC(=O)[C@H](C)[C@@H](O[C@H]2C[C@@](C)(OC)[C@@H](O)[C@H](C)O2)[C@H](C)[C@@H](O[C@@H]2O[C@H](C)C[C@H](N(C)C)[C@H]2O)[C@](C)(O)C[C@@H](C)C(=O)[C@H](C)[C@@H](O)[C@]1(C)O` [ERYTHROMYCIN], in assay [1], the Activity is 54%. For the same compound, the results for the MIC in assay [3] and in assay [2] were at least 256 µg/mL and 0.064 µg/mL (≈ 0.0872 µM), respectively. The result in assay [4], in assay [5] and in assay [6] was inactive.
